# Assay: In-vitro nail permeation assay (Franz type diffusion cells)
# Format: in vitro ADME, human
# Conditions: for Mean value of terbinafine concentration in the 5 mL receptor chamber of the Franz cell, Day 3 / Mean value of terbinafine concentration in the 5 mL receptor chamber of the Franz cell, Day 5: n=3
# Excerpt: Permeation fluxes of active substances, determined from nail permeation assays, are used to predict the efficacy of the active substances in a clinical situation. A permeation assay similar to the one reported by Franz (T. J. Franz, Dermatology, 184, 18-20, 1992) was used to investigate the applicability of the present invention to the treatment of onychomycosis and, in particular, to evaluate the permeation fluxes of a terbinafine containing pharmaceutical composition and a protective layer in laser pre-treated human cadaver great toenails. The experimental setup emulates the clinical situation where the pharmaceutical composition remains liquid for an extended period of time inside the nail holes in the case of laser pretreated nails to maximize the diffusion of the terbinafine into the nail.
# Human cadaver great toenails selected for the tests were soaked in physiological buffer solution for several hours before starting the assay. Nails were prepared for the assay by removal of epidermal residues on the ventral side. Round nail discs of 16 mm in diameter were punched. […] Nails were masked on the dorsal side by a silicon mounting ring leaving a nail area of 10 mm in diameter where the nails were exposed to the pharmaceutical composition and the protective layer.
# Three groups of nail samples were investigated.
# Group 1: Untreated nail samples were used in this group which is the control group. These nails were exposed to 25 μL of a lacquer containing 9% w/w terbinafine once a day.
# (§1) Group 2: In this group perforated nails were used. These nails were exposed to 25 μL of a 10% w/w terbinafine in ethanol solution once a day. After the application of the 10% w/w ethanolic solution to these nails, nails were covered with 25 μL of a lacquer containing 9% w/w terbinafine to form the protective layer according to the present invention.
# as §1, with “3:” for “2:”, “nails, these” for “nails,”, “without” for “containing 9% w/w”
# Franz type diffusion cells made of glass were used in the assays having a volume of ca. 5 mL using demineralized water as receptor buffer. Nail samples were fixed on the Franz cells with sealing silicone and Teflon discs pressed with a metallic spring loading system. In this way the ventral sides of the nails were in contact with demineralized water in the cell while the dorsal sides were in contact with the pharmaceutical formulations and protective layer according to Table 1. Diffusion cells were kept at 32° C. during the permeation assays.
# Cleaning of the nail sample and dissolution of previous layers of pharmaceutical composition and protective layers were performed prior to every reapplication of the pharmaceutical composition and the protective layer. For this purpose 100 microliters of dissolvent were applied to every nail sample. Subsequently, the nail samples were rubbed with a cleaning brush to ensure an exhaustive cleaning and then were dried with a cotton swab to remove with the dissolvent also the old components of the pharmaceutical solution and the protective layer. 25 microliters of the pharmaceutical composition were then applied to the exposed nail area and distributed with the application brush.
# Samples of receptor fluid were collected at various time points and analyzed by liquid chromatography and mass spectroscopy. The removed sample volume was replaced by demineralized water. This dilution effects were accounted in the final determination of the permeation fluxes.
# [1] = Group 1 (control): untreated nails, 9% w/w terbinafine lacquer once a day, dissolvent ethanol, 32° C.
# [2] = Group 2: laser pretreated nails (400 partial orifices/cm^2), 10% w/w terbinafine in ethanol once a day, protective layer 9% w/w terbinafine lacquer
# [3] = Group 3: laser pretreated nails (400 partial orifices/cm^2), 10% w/w terbinafine in ethanol once a day, protective layer lacquer without terbinafine
structure (smiles),measurement,setting,value
CN(C/C=C/C#CC(C)(C)C)Cc1cccc2ccccc12 [terbinafine],Permeation Fluxes,"Group 1 (control): untreated nails, 9% w/w terbinafine lacquer once a day, dissolvent ethanol",4.34 ng/cm^2/h
same,"Mean value of terbinafine concentration in the 5 mL receptor chamber of the Franz cell, Day 3",[1],82.4 ng/mL
same,"Mean value of terbinafine concentration in the 5 mL receptor chamber of the Franz cell, Day 5",[1],115.1 ng/mL
same,increase in the permeation fluxes as compared to the control group (group 1),Group 2 (protective layer also contains terbinafine) vs group 1,34 fold
same,"Mean value of terbinafine concentration in the 5 mL receptor chamber of the Franz cell, Day 3",[2],305.2 ng/mL
same,"Mean value of terbinafine concentration in the 5 mL receptor chamber of the Franz cell, Day 5",[2],1432.9 ng/mL
same,Permeation Fluxes,"Group 2: laser pretreated nails, 10% w/w terbinafine in ethanol once a day, protective layer 9% w/w terbinafine lacquer",149.6 ng/cm^2/h
same,increase in the permeation fluxes as compared to the control group (group 1),Group 3 (protective layer does not contain terbinafine) vs group 1,5 fold
same,"Mean value of terbinafine concentration in the 5 mL receptor chamber of the Franz cell, Day 3",[3],94.5 ng/mL
same,"Mean value of terbinafine concentration in the 5 mL receptor chamber of the Franz cell, Day 5",[3],272.6 ng/mL
same,Permeation Fluxes,"Group 3: laser pretreated nails, 10% w/w terbinafine in ethanol once a day, protective layer lacquer without terbinafine",23.6 ng/cm^2/h

# Reference: patent publication US20080299060A1, “Pharmaceutical Composition for the Treatment of Nail Diseases” (TLT MEDICAL LTD., priority 2006, published 2008)
